What was measured:
[1] = test system: S. mutans/S. gordonii/S. sanguinis 3-species biofilms; assay: 3-species biofilm imaging (EPS, dead/live, FISH) and quantitative PCR; format: cell-based
Procedure: To form 3-species biofilms, bacterial suspensions were mixed to obtain an inoculum consisting of S. mutans, S. gordonii, and S. sanguinis (1 × 10^5 CFU/ml for each strain, inoculum ratio = 1:1:1) in BHIS broth as described previously. The inoculum (250 μl) was added into the chemotaxis chamber (μ-slide 8well, 80,826; Ibidi) and incubated for 24 h. After the multispecies biofilms were formed, they were treated with different concentrations of II-6s, CHX and PBS for 5 days (5 min, three times per day).
For EPS staining, 2.5 μM Alexa Fluor 647-labeled dextran conjugate (Molecular Probes) was added to the culture medium from the beginning of the biofilm formation, and the bacteria were stained with 2.5 μM SYTO 9 (Molecular Probes, Invitrogen) for 15 min after biofilms formed. The biofilms were imaged with a DMIRE2 confocal laser scanning microscope (Leica, Wetzlar, Germany) equipped with a 60 × oil immersion lens.
For dead/live imaging, multispecies biofilms were stained with the Live/Dead BacLight Bacterial Viability Kit (Molecular Probes, Invitrogen), and the reagents were applied to the biofilms at final concentrations of 2.5 μM SYTO 9 and 2.5 μM propidium iodide for 15 min. Live/Dead staining is a measure of membrane damage since SYTO 9 penetrates intact cytoplasmic membranes, while propidium iodide is only able to penetrate damaged membranes. The dyed biofilms were imaged with a Leica DMIRE2 confocal laser scanning microscope as in EPS staining.
For fluorescent in situ hybridization imaging, biofilms were fixed in 4% paraformaldehyde overnight and investigated by species-specific probes (Table S1) as described previously [[30–32]]. In brief, prehybridization (15 min, 46°C) was performed in 250 μl hybridization buffer with 20% formamide in the absence of any oligonucleotide probes. The incubation time for the hybridization was almost 90 min at 46°C in the dark. After the incubation, biofilms were transferred into washing buffer preheated to 48°C and incubated for 15 min at this temperature. After staining, the biofilms were imaged with a Leica DMIRE2 confocal laser scanning microscope as in EPS staining.
Each biofilm was scanned at five randomly selected positions and the experiments were performed in triplicates on three independent occasions. All three-dimensional reconstructions of the biofilms were processed with Imaris, version 7.2.3 (Bitplane, Zürich, Switzerland), and the quantification of fluorescence levels was performed with ImageJ (with the plugin COMSTAT) (National Institutes of Health, Bethesda, MD).
Total DNA of biofilms was isolated and purified using a TIANamp Bacteria DNA kit (Tiangen, Beijing, China). The bacteria were lysed using enzymatic lysis buffer (20 mM Tris-HCl, pH 8.0, 2 mM sodium EDTA, and 1.2% Triton X-100) containing 25 mg/ml of lysozyme at 37°C for 1.5 h. The purity and concentration of DNA were determined by a NanoDrop 2000 spectrophotometer (Thermo Scientific, Waltham, MA, USA). The extracts were placed at −20°C before use. TaqMan real-time PCR (Life Technologies, Carlsbad, CA, USA) was applied to quantify the absolute number of S. mutans, S. gordonii and S. sanguinis as described by the manufacturer (TaKaRa, Dalian, China). The sequences of primers (Table S2) were in accordance with previous studies. The standard curves of these bacteria were plotted using cycle values of DNA, which stands for corresponding concentrations of bacteria from 1 × 10^8 CFU/ml to 1 × 10^4 CFU/ml (Figure S1). The number of each strain within 3-species biofilms was calculated based on standard curves. The experiment was conducted in triplicates and repeated three times.

[2] = test system: 3-species streptococcal biofilms on bovine enamel slabs; assay: Transverse microradiography of biofilm-induced demineralization on bovine enamel slabs; format: cell-based; settings: for biofilm-induced demineralization of enamel slabs (lesion depth, mineral loss): vs PBS control, 5 days, 5 min three times per day
Description: The labial dental crown of bovine incisors was cut into 5 mm × 5 mm × 4 mm by a diamond-coated band saw with continuous water cooling (Struers Minitom; Struers, Copenhagen, Denmark). These bovine specimens were embedded in polymethylmethacrylate and labial enamel surfaces were ground flat with water-cooled carborundum discs of waterproof silicon carbide paper (Struers) of various grits (1,000, 1,200, 2,400, 3,000 and 4,000). Then, enamel blocks were painted with two layers of acid-resistant nail varnish, leaving a 4 × 4 mm window exposed on the labial enamel surface. These specimens were measured by the […] hardness test (Zwick, Ulm, Germany) and those in the range from 314.6 to 382.4 Knoop Hardness Numbers were selected for the demineralization assessment. All the polished samples were sonicated in distilled water for 5 min to remove the residual abrasives and sterilized in an ethylene oxide sterilizer (AnproleneAN 74i, Andersen, Haw River, NC, USA).
An amount of 2 ml bacterial suspension solution contained S. mutans, S. gordonii and S. sanguinis (1 × 10^7 CFU/ml for each bacterium) was added to each well of a 12-well plate with a bovine sample, which was cultured anaerobically in a BHIS medium at 37°C (5% CO2) for 24 h. The specimens were treated with PBS, 0.2% of CHX or different concentrations of II-6s (15.63 to 125 μg/ml) for 5 days (5 min, three times per day). The pH of all experimental solutions was adjusted to 7.0 before treatment. All specimens were washed with PBS and refreshed with BHIS after every exposure. After 5 days of incubation, samples were rinsed with distilled water to remove the remaining biofilms, then cut again and polished with waterproof silicon carbide abrasive papers (800–4,000 grit; Struers, Copenhagen, Denmark) to a thickness around 100 μm. […] Quantitative data of mineral loss and lesion depth were acquired by a calibrated analysis system TMR2006 (Inspektor Research Systems BV, Netherlands). […]

[3] = test system: S. mutans; assay: Time-kill assay; format: cell-based, Streptococcus mutans UA159; settings: at MBC
Procedure: The time- and dose-dependent killing capacities of II-6s were assessed by the method modified from that of Koo et al.. S. mutans was diluted to 1 × 10^7 CFU/ml in BHI broth containing test compounds or not, and incubated in 5% CO2 at 37°C. For the time-kill curve, the final concentration of II-6s and CHX was equivalent to their MBC. At 0, 0.5, 1, 2, 4, 6, 8 and 10 h, samples were serially diluted in PBS and 50 μl aliquots were spread onto BHI agar medium. For the dose-dependent killing curve, S. mutans was treated with different doses of II-6s and CHX for 5 min before diluted and spread. All plates were incubated anaerobically for 48 h followed by enumeration of CFU. The time-kill or dose-dependent killing curves were constructed by plotting the log10(CFU/ml) versus the incubation time or concentration. The experiment was performed in triplicates and repeated at least three times.

[4] = 5 days, 5 min three times per day

Compound | EPS/bacteria ratio of the biofilms [1, 4] | biofilm-induced demineralization of enamel slabs (lesion depth, mineral loss) [2] | treatment time after which no visible colonies were observed on the plate [3] | reduction of S. mutans ([3]; within 2 h) | microbial composition within 3-species biofilms (FISH, quantitative PCR) [1, 4] | dead/live bacteria ratio of biofilm ([1]; II-6s 125 μg/ml, vs 0.2% of CHX) | dead/live bacteria ratio of biofilms ([1]; II-6s 31.25 to 125 μg/ml, vs non-treated control) | reduction of bacterial biomass and EPS production ([1]; II-6s 31.25 to 125 μg/ml, 5 days, 5 min three times per day) | inhibitory effect on biofilm-induced demineralization ([2]; II-6s 31.25 to 125 μg/ml, vs 0.2% of CHX)
[H]/N=C(\N/C(=N/[H])NCCCCCCNC(=N)NC(=N)Nc1ccc(Cl)cc1)Nc1ccc(Cl)cc1 [CHX, Chlorhexidine digluconate, reference compound] | neither II-6s nor CHX treatment altered the EPS/bacteria ratio | significantly reduced the demineralization |  |  |  |  |  |  | 
CC(C)(Cc1ccc2ccccc2c1)NC[C@H](O)CNc1cc(C(F)(F)F)cc(C(F)(F)F)c1 [II-6s, (S)-1-((3,5-bis(trifluoromethyl)phenyl)amino)-3-((2-methyl-1-(naphthalen-2-yl)propan-2-yl)amino)propan-2-ol] | neither II-6s nor CHX treatment altered the EPS/bacteria ratio | significantly reduced the demineralization | 8 h | approximately 3 log10 CFU/ml | effectively reduced the total biomass of streptococci but did not specifically reduce the cariogenic S. mutans | even higher than that treated with 0.2% of CHX | significantly higher than that of the non-treated control | equivalent ability to reduce bacterial biomass and EPS production as compared to 0.2% of CHX | equivalent inhibitory effect on the biofilm-induced demineralization as compared to 0.2% of CHX
